Measurements reported in PubChem BioAssay (NCI).
Where “and” joins values, the source holds several entries; their conditions need not be identical. Equal values may be shown once.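 Results reflect a 48-hour exposure of cells in 96-well plates to compound at five concentrations. Abbreviation: GI50, concentration required for 50% inhibition of growth. TGI: concentration producing complete growth inhibition.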

Columns and labels:
Assay in all cases: DTP human tumour cell line panel, 48 h
SK-MEL-2 melanoma = test system: SK-MEL-2 melanoma
M14 melanoma = test system: M14 melanoma
SF-268 CNS = test system: SF-268 CNS
COLO 205 colon = test system: COLO 205 colon
K-562 leukemia = test system: K-562 leukemia
OVCAR-8 ovarian = test system: OVCAR-8 ovarian
MDA-MB-231 breast = test system: MDA-MB-231 breast
SK-MEL-28 melanoma = test system: SK-MEL-28 melanoma
OVCAR-4 ovarian = test system: OVCAR-4 ovarian
HT29 colon = test system: HT29 colon

Row | SMILES | GI50 (SK-MEL-2 melanoma) | TGI (SK-MEL-2 melanoma) | GI50 (M14 melanoma) | TGI (M14 melanoma) | GI50 (SF-268 CNS) | TGI (SF-268 CNS) | GI50 (COLO 205 colon) | TGI (COLO 205 colon) | GI50 (K-562 leukemia) | TGI (K-562 leukemia) | GI50 (OVCAR-8 ovarian) | TGI (OVCAR-8 ovarian) | GI50 (MDA-MB-231 breast) | TGI (MDA-MB-231 breast) | GI50 (SK-MEL-28 melanoma) | TGI (SK-MEL-28 melanoma) | GI50 (OVCAR-4 ovarian) | TGI (OVCAR-4 ovarian) | GI50 (HT29 colon) | TGI (HT29 colon)
1 | Nc1nn2cc(F)cnc2c1C(=O)Nc1cncc(F)c1N1CCC(C(=O)N2CCN(C3COC3)CC2)CC1 | 0.194 µM | 0.821 µM | 0.154 µM | 5.4 µM | 1.33 µM | > 100 µM | 0.575 µM | > 100 µM | 0.281 µM | 2.74 µM | 0.548 µM | 6.13 µM | 1.93 µM | 6.37 µM | 2.95 µM | > 100 µM | 0.326 µM | 7.86 µM | 0.452 µM | > 100 µM
2 | CCOC(=O)C(C#N)C1=CC(=O)C(=O)c2ccc(OC)cc21 (stereo not given) |  | 28.1 µM |  | 29.8 µM |  | > 100 µM |  | 32.3 µM |  | > 100 µM |  | 54.4 µM |  | 29.1 µM |  | 41.4 µM |  | 33.7 µM |  | 94.2 µM
3 | O=C(Nc1ccc(Br)cc1F)c1cc(F)ccc1O | 0.398 µM | 2.56 µM | 0.514 µM | 4.07 µM | 0.558 µM | 10.1 µM | 2.46 µM | 6.56 µM | 0.445 µM | > 100 µM | 1.3 µM | 15 µM | 0.41 µM | 4 µM | 0.377 µM | 1.84 µM | 0.612 µM | > 27.8 µM | 3.19 µM | > 36.7 µM
4 | O=C(Nc1ccc(Nc2ccncc2)cc1)c1ccc([N+](=O)[O-])cc1 | 9.64 µM | 28.9 µM | 7.18 µM | 26.9 µM | 6.79 µM | 27.5 µM | 1.9 µM | 3.73 µM | 3.11 µM | > 28.2 µM | 8.44 µM | 32.6 µM | 3.44 µM | 14.9 µM | 5 µM | 16.7 µM | 5.37 µM | 27.4 µM | 3.61 µM | 16.5 µM
5 | O=C(Nc1ccc2ncccc2c1)Nc1ccc2ncccc2c1 |  | > 100 µM |  | > 100 µM |  | > 100 µM |  | > 100 µM |  | > 100 µM |  | > 100 µM |  | > 100 µM |  | > 100 µM |  | > 100 µM |  | > 100 µM
6 | COC(=O)c1ccc2c(c1)nc(NC(=O)c1ccccc1)n2CCCc1ccccc1 | 5.58 µM | > 100 µM | 2.28 µM | > 100 µM | 3.93 µM | > 100 µM | 3.89 µM | > 100 µM | 3.26 µM | > 100 µM | 4.79 µM | > 100 µM | 6.26 µM | > 100 µM | 3.79 µM | > 100 µM | 2.93 µM | > 100 µM | 6.92 µM | > 100 µM
7 | C[N+](C)(C)CC1CCCc2ccccc2C1=O (stereo not given) |  | 27.2 µM | 7.85 µM | 9.49 µM and 19.7 µM |  | 53.9 µM |  | 42.9 µM | 0.303 µM | 6.72 µM and 1.02 µM | 6.14 µM | 12.4 µM |  | 30.6 µM |  | 34.5 µM | 15.7 µM | 41.2 µM | 7.65 µM | 30.7 µM
8 | Cn1c(I)c(C#CCO[Si](C)(C)C(C)(C)C)c(=O)[nH]c1=O | 13.9 µM | 27.7 µM | 14 µM | 28.7 µM | 15.9 µM | 30.2 µM | 6.41 µM | 20 µM | 2.06 µM | 4.36 µM | 22.4 µM | 51.7 µM | 17.3 µM | 33.1 µM | 2.95 µM | 9.05 µM | 10.1 µM | 27.4 µM | 20.9 µM | 39.7 µM
9 | Cc1ccc(SC2c3ccc(C)cc3Oc3nc(N)c(C#N)c(N)c32)cc1 (stereo not given) | 1.84 µM | 3.71 µM | 1.77 µM | 3.49 µM | 1.83 µM | 4.06 µM | 1.71 µM | 3.32 µM | 2.79 µM | 12.4 µM | 1.67 µM | 3.06 µM | 1.67 µM | 3.29 µM | 1.83 µM | 3.35 µM | 1.8 µM | 3.29 µM | 2 µM | 3.9 µM
10 | Cc1cc(Cl)cc(OCCn2cc(F)cn2)c1-c1nc(N)nc2c1CN(C(=O)NCC(C)(F)F)C2 | 0.508 µM | > 100 µM | 0.0848 µM | > 100 µM | > 55.4 µM | > 100 µM | 0.0395 µM | 1.19 µM | 0.0519 µM | > 100 µM | 0.0776 µM | > 100 µM | 0.257 µM | > 100 µM | 0.0709 µM | > 100 µM | > 100 µM | > 100 µM | 0.0355 µM | > 100 µM
11 | CO/N=C(/C)c1cccc(Nc2cc(-n3nnc4ccccc43)nc3ccccc23)c1 | > 100 µM | > 100 µM | 37.4 µM | > 100 µM | 30.5 µM | > 100 µM | > 100 µM | > 100 µM | 15.2 µM | > 100 µM | 87.1 µM | > 100 µM | 7.55 µM | 60.2 µM | > 100 µM | > 100 µM | 65.6 µM | > 100 µM | 11.8 µM | > 100 µM
12 | O=C(/C=C/c1ccccc1)CCC1C(=O)c2ccccc2C1=O |  | > 100 µM |  | > 100 µM |  | > 100 µM |  | > 100 µM |  | > 100 µM |  | > 100 µM |  | > 100 µM |  | > 100 µM |  | > 100 µM |  | > 100 µM
13 | COc1cc(OCc2cccc(-c3ccc(C(O)c4nccs4)cc3)c2C)cc(OC)c1C=O (stereo not given) | 2.58 µM | 8.53 µM | 2.55 µM | 7.61 µM | 2.92 µM | 12.3 µM | 2.64 µM | 8.27 µM | 1.22 µM | 13.6 µM | 2.9 µM | 23.6 µM | 2.2 µM | 7.32 µM | 2.04 µM | 6.57 µM | 0.597 µM | 6.35 µM | 2.83 µM | 13.6 µM
14 | C(=NCCN1CCOCC1)=NC1CCCCC1 |  | > 100 µM |  | > 100 µM |  | > 100 µM |  | > 100 µM |  | > 100 µM |  | > 100 µM |  | > 100 µM |  | > 100 µM |  | > 100 µM |  | > 100 µM
